# Oligonucleotides are written 5' to 3', each unit as a sugar letter and its base; * is a phosphorothioate linkage, no mark a phosphodiester; rarer units and linkages stand in square brackets, end groups in braces. Plain capitals give the bases only. r = 2'-OH (RNA); f = 2'-fluoro
# T1: chymase (recombinant, manufactured by SIGMA) (Homo sapiens, UniProt P23946)
# T1 construct: purchased SIGMA; host or cells: yeast
# T1 sequence (P23946 22-247): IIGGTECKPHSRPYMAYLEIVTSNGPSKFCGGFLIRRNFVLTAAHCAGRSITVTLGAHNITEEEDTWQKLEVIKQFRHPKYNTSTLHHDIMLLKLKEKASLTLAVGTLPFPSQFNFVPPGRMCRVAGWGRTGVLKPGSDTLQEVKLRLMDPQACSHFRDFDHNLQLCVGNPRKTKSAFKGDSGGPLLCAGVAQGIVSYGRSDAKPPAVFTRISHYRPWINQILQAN
# B1: 14 (nucleic acid)
# chain: rGrGrGrAfCrGrGfUrArGrGrArAfUfUfCfUfCrGfUfUfCfCfUrGrAfCrArGfCrAfUfUfUrGrArGrAfUrArGrAfUfUfUrArArAfCrArArAfCrGfCrAfCrAfUrArGrArArGrArGfCrGrGfCfCrGfC
# modifications: aptamer
# B2: 13 (nucleic acid)
# chain: rGrGrGrAfCrGrGfUrArGrGrArAfUfUfCfCrGfCrArAfCfCrAfUfCfCfCrGfUrArAfCfUrAfUrGrGfUfUrArGrAfUrArGrArGfUfUrArArArArAfCfCrAfUrArGrArArGrArGfCrGrGfCfCrGfC
# modifications: aptamer
# B3: 4 (nucleic acid)
# chain: rGrGrGrAfCrGrGfUrArGrGrArAfUfUfCrGfUfCfCrAfUfUfCfUrAfCrArGrAfUrArGrArGrAfUrArArArGfUrArGrArAfUfUfUrArAfCrArArArAfCrAfUrArGrArArGrArGfCrGrGfCfCrGfC
# modifications: aptamer
# Experiments:
# [1] = biological target: T1, chymase (recombinant, manufactured by SIGMA); assay: Chymase inhibitory activity using synthetic substrate Suc-Ala-Ala-Pro-Phe-MCA; format: biochemical
# Method in brief: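 Human recombinant chymase (16.7 nM or 1.67 nM final) preincubated 5 min at 37° C., then added to nucleic acid (0.0027–2 μM serial dilutions) and 100 μM substrate in solution C. AMC fluorescence (ex 380/em 460 nm) followed 5 or 30 min at 37° C.; slope gives initial velocity, inhibition versus no-inhibitor control yields IC50.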
# [2] = biological target: T1, chymase (recombinant, manufactured by SIGMA); assay: Surface plasmon resonance (Biacore T100), chymase immobilized on CM5 chip, nucleic acid injected as analyte; format: binding; parameters: key to Binding activity as determined using Biacore: ++: a sequence that binds to chymase significantly more strongly than the negative control 40N; +: a sequence that binds to chymase equivalently compared with the negative control 40N; key to binding activity using Biacore: ++: significant binding to chymase than SEQ ID NO: 58 which is a negative control; +: similar binding level as SEQ ID NO: 58 which is a negative control; settings: for Binding activity as determined using Biacore: Table 4, about 4000 RU chymase immobilized, nucleic acid 0.3 μM, solution C, compared with 40N; for binding activity using Biacore: same manner as Example 4, compared with SEQ ID NO: 58
# Procedure: In another method, chymase is first immobilized onto a sensor chip, the amount immobilized being about 4000 RU. 20 μL of an aptamer solution for analyte, prepared at 0.01 μg/μL, is injected, and the binding of the aptamer to chymase is detected. An RNA containing a random nucleotide sequence of 30 or 40 nucleotides is used as a negative control.
# Whether these nucleic acids bind to chymase was determined by the surface plasmon resonance method. Measurements were taken using Biacore T100 (manufactured by GE Healthcare) as described below. About 4000 RU of chymase (recombinant, manufactured by SIGMA) was immobilized on the sensor chip surface of a CM5 chip, using an amine coupling kit. 20 μL of each nucleic acid, prepared at 0.3 μM, as an analyte was injected at a flow rate of 20 μL/min. Solution C was used as a running buffer. The method of evaluation used was the same as Example 1.
# All nucleic acids of SEQ ID NO: 58-68 were prepared by chemical synthesis. Whether these nucleic acids are bound to chymase was assessed by surface plasmon resonance method in the same manner as in Example 4. The inhibitory activity on chymase was measured in the same manner as in Example 3.
# All nucleic acids of SEQ ID NOs: 73-79, 56(8), 80, 56(10), 81, 56(13)-56(14), 83-87 were prepared by chemical synthesis. Whether these nucleic acids are bound to chymase was assessed by surface plasmon resonance method in the same manner as in Example 4.
# All nucleic acids of SEQ ID NO: 88-120, 121, 69, 122, 123, 70-72, 124-131 were prepared by chemical synthesis. Whether these nucleic acids are bound to chymase was assessed by surface plasmon resonance method in the same manner as in Example 4.
# [3] = Table 4, same manner as Example 3, mean value for 2 to 3 measurements
# [4] = Table 6, same manner as Example 3, mean value of two measurements
# [5] = Table 7, same manner as Example 3, mean value of two measurements
# [6] = Table 5, same manner as Example 3, mean value of two measurements
# [7] = Table 3, substrate 100 μM, solution C, 37° C., mean value for 2 to 3 measurements
molecule,measurement,setting,value
"56 (GGGUUAGAUAGAGUUAAAAACCC; 2'-fluoro at CU, RNA at AG, backbone not given here) [compound 56]",IC50,[1]; [3],46 ± 31 nM
same,IC50,[1]; [4],27 ± 2 nM
same,Binding activity as determined using Biacore,[2],++
same,binding activity using Biacore,[2]; Table 6,++
"55 (CUAUGGUUAGAUAGAGUUAAAAACCAUAG; 2'-fluoro at CU, RNA at AG, backbone not given here) [compound 55]",IC50,[1]; [3],55 ± 23 nM
same,Binding activity as determined using Biacore,[2],++
"54 (UAACUAUGGUUAGAUAGAGUUAAAAACCAUAGAAGA; 2'-fluoro at CU, RNA at AG, backbone not given here) [compound 54]",IC50,[1]; [3],51 ± 33 nM
same,Binding activity as determined using Biacore,[2],++
71 (GGGUUAGAUAGAGTUAAAAACCC; chemistry not given here) [compound 71],IC50,[1]; [5],28 ± 5 nM
same,binding activity using Biacore,[2]; Table 7,++
65 (rGrGfCrArGrAfUrArGrArGfUfUrArArArGfCfC) [compound 65],IC50,[1]; [6],56 ± 46 nM
same,binding activity using Biacore,[2]; Table 5,++
72 (GGGTTAGAUAGAGTUAAAAACCC; chemistry not given here) [compound 72],IC50,[1]; [5],20 ± 2 nM
same,binding activity using Biacore,[2]; Table 7,++
"53 (GGGUAACUAUGGUUAGAUAGAGUUAAAAACCAUAGAAGACCC; 2'-fluoro at CU, RNA at AG, backbone not given here) [compound 53]",IC50,[1]; [3],66 ± 24 nM
same,Binding activity as determined using Biacore,[2],++
70 (GGGTTAGAUAGAGUUAAAAACCC; chemistry not given here) [compound 70],IC50,[1]; [5],27 ± 4 nM
same,binding activity using Biacore,[2]; Table 7,++
"58 (GGGUUGAAGAUAUUAAAGAACCC; 2'-fluoro at CU, RNA at AG, backbone not given here) [compound 58]",IC50,[1]; [6],> 1000 nM
same,binding activity using Biacore,[2]; Table 5,+
"CC(C)C[C@H](NC(=O)[C@@H](NC(=O)N[C@@H](Cc1ccccc1)C(=O)O)[C@@H]1CCN=C(N)N1)C(=O)N[C@H](C=O)Cc1ccccc1 [chymostatin, reference compound]",IC50,[1]; [7],100 to 200 nM
"GGGU(F)U(F)GAAGAU(F)AU(F)U(F)AAAGAAC(F)C(F)C(F) (GGGUUGAAGAUAUUAAAGAACCC; 2'-fluoro at CU, RNA at AG, backbone not given here) [SEQ ID NO: 58]",IC50,[1]; [6],> 1000 nM
same,IC50,[1]; [4],> 1000 nM
same,IC50,[1]; [5],> 1000 nM
B1,IC50,[1]; [7],61 ± 53 nM
B2,IC50,[1]; [7],58 ± 24 nM
B3,IC50,[1]; [7],49 ± 3 nM
